The values that follow come from article PMC5667636 (Antiviral Research, 2017).

Assay [1] relates to neuraminidase (NA) of B/Yamagata-lineage viruses. The format is biochemical, influenza B/Yamagata-lineage virus.
Assay [2] deals with neuraminidase (NA) of A(H1N1)pdm09 viruses. The note with it: cited from earlier work.
The test system is the same in assay [3]. The format is biochemical, influenza A(H1N1)pdm09 virus.

With `CC(=O)N[C@H]1[C@H]([C@H](O)[C@H](O)CO)OC(C(=O)O)=C[C@@H]1N=C(N)N` [Zanamivir, zanamivir], the “inhibition phenotype in NAI assay (NI/RI/HRI)” value in assay [1] was “borderline RI”.
For `CCOC(=O)C1=C[C@@H](OC(CC)CC)[C@H](NC(C)=O)[C@@H](N)C1` [Oseltamivir, oseltamivir], the “effect on inhibition (IC50 fold)” value in assay [2] is listed as 5- to 8 fold.
As for `CCC(CC)[C@H](NC(C)=O)[C@@H]1[C@H](O)[C@@H](C(=O)O)C[C@H]1N=C(N)N` [Peramivir, peramivir], in assay [3], the “IC50 fold-change of viruses exhibiting RI/HRI” value is given as 10- to 6270 fold. Also, the “inhibition phenotype in NAI assay (NI/RI/HRI)” value in assay [1] was “borderline RI”.
